From patent US12558331B2, “Pregabalin formulations and use thereof” (priority 2019, dated 2026)

Columns and labels:
[1] = Water solubility of pregabalin as the function of pH at 5° C.; type: physicochemical
Procedure: Water solubility at 5° C. of pregabalin as such and with the addition of 2.0 mg/ml sodium benzoate was measured as the function of pH.

cats = experiment: Randomized, double-blind, placebo-controlled clinical study: transportation and veterinary visit anxiety and fear in cats; type: in vivo, cat; settings: 5 mg/kg orally
Procedure: A randomized, double-blind, placebo-controlled parallel-group, multicenter clinical study was conducted for evaluating the efficacy and safety of pregabalin for the treatment or prevention of transportation and veterinary visit anxiety and fear in cats. Cats were randomised to receive either 5 mg/kg (n=108) of pregabalin or placebo (n=101) orally as a single dose approximately 90 minutes before transportation to the veterinary clinic.
The study had two primary efficacy variables. The first primary variable was the owner's assessment of the treatment effect based on the cat's stress, anxiety and/or fear during transportation in a car. The second primary variable was the investigator's assessment of the treatment effect based on the cat's stress, anxiety and/or fear during clinical examination at the veterinary clinic. Both were assessed using a numerical rating scale with the scores 1-5.

[2] = single dose approximately 90 minutes before transportation

## CC(C)C[C@H](CN)CC(=O)O [pregabalin]
[1]; pregabalin as such, when pH is lower than about 4.4, FIG. 1
  Water solubility as the function of pH: increased significantly
[1]; with addition of 2.0 mg/ml sodium benzoate, FIG. 1
  Physical stability (precipitation of pregabalin): further improved the physical stability
cats; single dose
  Ataxia and sedation: did not produce marked ataxia or excessive sedation
cats; [2]
  Investigator's assessment of treatment effect during clinical examination, % of cats, Score 1 Excellent: 14.3%
  Investigator's assessment of treatment effect during clinical examination, % of cats, Score 2 Good: 41.0%
  Investigator's assessment of treatment effect during clinical examination, % of cats, Score 3 Fair: 27.6%
  Investigator's assessment of treatment effect during clinical examination, % of cats, Score 4 Poor: 10.5%
  Investigator's assessment of treatment effect during clinical examination, % of cats, Score 5 Very poor: 6.7%
  Owner's assessment of treatment effect during transportation, % of cats, Score 1 Excellent: 17.1%
  Owner's assessment of treatment effect during transportation, % of cats, Score 2 Good: 34.3%
  Owner's assessment of treatment effect during transportation, % of cats, Score 3 Fair: 23.8%
  Owner's assessment of treatment effect during transportation, % of cats, Score 4 Poor: 14.3%
  Owner's assessment of treatment effect during transportation, % of cats, Score 5 Very poor: 10.5%
